Laboratory results from ChEMBL document CHEMBL5661982 (Mol Cancer Ther, 2012).
The source made the active and inactive calls. The rule behind the calls is not given here.

How the values were obtained:
GTL 16 cell line [1] = test: animal or person; conditions: Mus musculus, GTL 16, po, 384 h, read-out: TGI
Description: Antitumor activity against human GTL 16 cells xenografted in athymic nu/nu mouse assessed as tumor growth inhibition at 30 mg/kg, po administered for 16 days relative to control

GTL 16 cell line [2] = test: Antitumor activity against human GTL 16 cells xenografted in athymic nu/nu mouse assessed as tumor growth inhibition at 3 mg/kg, po administered for 16 days relative to control; conditions: GTL 16, po, 384 h, read-out: TGI
GTL 16 cell line [3] = test: Antiproliferative activity against human GTL 16 cells over expressing c-Met assessed as reduction in cell viability after 48 to 72 hrs by MTT assay
HT-29 [4] = test: Inhibition of cell invasion in HGF-stimulated human HT-29 cells over expressing c-Met incubated for 48 hrs by Matrigel based analysis; conditions: HT-29, 48 h
GTL 16 cell line [5] = test: Antitumor activity against human GTL 16 cells xenografted in athymic nu/nu mouse assessed as tumor growth inhibition at 5 mg/kg, sc minipump administered for 14 days relative to control; conditions: GTL 16, 336 h, read-out: TGI
GTL 16 [6] = conditions: Homo sapiens, dose 1-30 mg/kg, route po
MDA-MB-231 = test: Antitumor activity against human MDA-MB-231 cells xenografted in athymic nu/nu mouse assessed as tumor growth inhibition at 40 mg/kg/day, po for 14 days relative to control; conditions: MDA-MB-231, po, 336 h, read-out: TGI
GTL 16 cell line [7] = test: Antitumor activity against human GTL 16 cells xenografted in athymic nu/nu mouse assessed as tumor growth inhibition at 0.5 mg/kg, sc minipump administered for 14 days relative to control; conditions: GTL 16, 336 h, read-out: TGI
COLO 205 = test: Antitumor activity against human COLO 205 cells xenografted in athymic nu/nu mouse assessed as tumor growth inhibition at 40 mg/kg/day, po for 18 days relative to control; conditions: COLO 205, po, 432 h, read-out: TGI
DLD-1 = test: Antiproliferative activity against human DLD-1 cells over expressing c-Met assessed as reduction in cell viability after 48 to 72 hrs by MTT assay
GTL 16 cell line [8] = test: Antitumor activity against human GTL 16 cells xenografted in athymic nu/nu mouse assessed as tumor growth inhibition at 15 mg/kg, sc minipump administered for 14 days relative to control; conditions: GTL 16, 336 h, read-out: TGI
HT-29 [9] = conditions: Homo sapiens, dose 50.0 mg/kg/day, route po, time 21.0 day
SW-620 [10] = test: Antiproliferative activity against human SW620 cells over expressing c-Met assessed as reduction in cell viability after 48 to 72 hrs by MTT assay
HCC1143 = test: Antiproliferative activity against human HCC1143 cells over expressing c-Met assessed as reduction in cell viability after 48 to 72 hrs by MTT assay
A549 = test: Antiproliferative activity against human A549 cells over expressing c-Met assessed as reduction in cell viability after 48 to 72 hrs by MTT assay
HT-29 [11] = test: Antiproliferative activity against human HT-29 cells over expressing c-Met assessed as reduction in cell viability after 48 to 72 hrs by MTT assay
GTL 16 cell line [12] = test: Antitumor activity against human GTL 16 cells xenografted in athymic nu/nu mouse assessed as tumor growth inhibition at 1.5 mg/kg, sc minipump administered for 14 days relative to control; conditions: GTL 16, 336 h, read-out: TGI
SW-620 [13] = conditions: Homo sapiens, dose 40.0 mg/kg/day, route po, time 25.0 day
GTL 16 [14] = conditions: Homo sapiens, dose 0.3-10 mg/kg, route po, time 4.0 day
HUVEC = test: Antiproliferative activity against HGF-stimulated HUVEC cells assessed as reduction in cell viability after 48 to 72 hrs by MTT assay; conditions: Homo sapiens
Insulin receptor = Insulin receptor (Homo sapiens, UniProt P06213); test: Inhibition of Insulin receptor expressed in HEK293 cells assessed as reduction insulin-stimulated INSR phosphorylation incubated for 1 hr by sandwich ELISA analysis
Sequence of Insulin receptor (P06213 28-758 limits assumed): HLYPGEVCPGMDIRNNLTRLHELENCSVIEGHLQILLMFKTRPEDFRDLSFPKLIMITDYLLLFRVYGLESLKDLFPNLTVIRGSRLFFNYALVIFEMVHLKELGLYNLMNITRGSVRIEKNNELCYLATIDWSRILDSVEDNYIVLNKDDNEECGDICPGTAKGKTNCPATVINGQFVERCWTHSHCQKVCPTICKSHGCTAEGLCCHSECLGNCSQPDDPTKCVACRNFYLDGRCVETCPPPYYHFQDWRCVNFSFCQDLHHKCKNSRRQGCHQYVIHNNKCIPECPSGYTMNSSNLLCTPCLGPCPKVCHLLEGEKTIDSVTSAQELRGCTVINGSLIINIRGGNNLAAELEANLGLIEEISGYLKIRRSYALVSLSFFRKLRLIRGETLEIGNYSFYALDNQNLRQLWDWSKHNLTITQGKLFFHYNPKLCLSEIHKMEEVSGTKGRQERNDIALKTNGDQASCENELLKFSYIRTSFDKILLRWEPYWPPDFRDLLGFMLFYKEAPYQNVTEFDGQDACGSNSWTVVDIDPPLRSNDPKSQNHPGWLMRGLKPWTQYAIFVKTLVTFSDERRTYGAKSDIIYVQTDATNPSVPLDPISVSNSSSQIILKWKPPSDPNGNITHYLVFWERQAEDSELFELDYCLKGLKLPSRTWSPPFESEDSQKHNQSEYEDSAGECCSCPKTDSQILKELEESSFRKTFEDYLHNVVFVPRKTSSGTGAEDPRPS
Sequence of Insulin receptor (P06213 763-1382 limits assumed): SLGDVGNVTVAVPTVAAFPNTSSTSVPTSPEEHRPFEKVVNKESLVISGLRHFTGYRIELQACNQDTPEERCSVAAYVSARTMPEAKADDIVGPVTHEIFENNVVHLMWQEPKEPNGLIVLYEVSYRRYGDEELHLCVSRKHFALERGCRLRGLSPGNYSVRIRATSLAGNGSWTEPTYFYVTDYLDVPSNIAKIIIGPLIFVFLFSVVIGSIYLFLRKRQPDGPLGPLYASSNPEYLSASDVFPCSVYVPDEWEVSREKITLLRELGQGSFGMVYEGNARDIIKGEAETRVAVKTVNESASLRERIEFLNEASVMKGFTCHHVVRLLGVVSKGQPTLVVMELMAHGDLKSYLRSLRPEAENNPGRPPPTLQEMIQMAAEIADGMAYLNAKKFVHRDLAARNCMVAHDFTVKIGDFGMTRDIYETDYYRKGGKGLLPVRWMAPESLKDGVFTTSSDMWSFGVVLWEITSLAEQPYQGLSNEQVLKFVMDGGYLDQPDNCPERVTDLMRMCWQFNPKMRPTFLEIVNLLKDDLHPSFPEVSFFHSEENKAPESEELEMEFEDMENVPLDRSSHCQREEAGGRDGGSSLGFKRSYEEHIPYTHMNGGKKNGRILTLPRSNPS

NCI-H1993 = test: Antiproliferative activity against human NCI-H1993 cells over expressing c-Met assessed as reduction in cell viability after 48 to 72 hrs by MTT assay
[15] = molecular target: Macrophage-stimulating protein receptor (Mus musculus, UniProt Q62190); test: Inhibition of Ron expressed in mouse NIH3T3 cells assessed as reduction in MSP-stimulated RON phosphorylation incubated for 1 hr by sandwich ELISA analysis
Sequence of Macrophage-stimulating protein receptor (Q62190 25-305 limits assumed): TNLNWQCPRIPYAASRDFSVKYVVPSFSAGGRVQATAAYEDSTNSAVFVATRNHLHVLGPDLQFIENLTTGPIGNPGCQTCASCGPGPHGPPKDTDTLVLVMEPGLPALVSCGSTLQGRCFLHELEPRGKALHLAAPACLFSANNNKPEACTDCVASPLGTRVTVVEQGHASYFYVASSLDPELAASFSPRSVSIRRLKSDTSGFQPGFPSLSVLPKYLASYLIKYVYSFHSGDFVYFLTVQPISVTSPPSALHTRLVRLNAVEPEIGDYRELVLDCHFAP
Sequence of Macrophage-stimulating protein receptor (Q62190 311-1378 limits assumed): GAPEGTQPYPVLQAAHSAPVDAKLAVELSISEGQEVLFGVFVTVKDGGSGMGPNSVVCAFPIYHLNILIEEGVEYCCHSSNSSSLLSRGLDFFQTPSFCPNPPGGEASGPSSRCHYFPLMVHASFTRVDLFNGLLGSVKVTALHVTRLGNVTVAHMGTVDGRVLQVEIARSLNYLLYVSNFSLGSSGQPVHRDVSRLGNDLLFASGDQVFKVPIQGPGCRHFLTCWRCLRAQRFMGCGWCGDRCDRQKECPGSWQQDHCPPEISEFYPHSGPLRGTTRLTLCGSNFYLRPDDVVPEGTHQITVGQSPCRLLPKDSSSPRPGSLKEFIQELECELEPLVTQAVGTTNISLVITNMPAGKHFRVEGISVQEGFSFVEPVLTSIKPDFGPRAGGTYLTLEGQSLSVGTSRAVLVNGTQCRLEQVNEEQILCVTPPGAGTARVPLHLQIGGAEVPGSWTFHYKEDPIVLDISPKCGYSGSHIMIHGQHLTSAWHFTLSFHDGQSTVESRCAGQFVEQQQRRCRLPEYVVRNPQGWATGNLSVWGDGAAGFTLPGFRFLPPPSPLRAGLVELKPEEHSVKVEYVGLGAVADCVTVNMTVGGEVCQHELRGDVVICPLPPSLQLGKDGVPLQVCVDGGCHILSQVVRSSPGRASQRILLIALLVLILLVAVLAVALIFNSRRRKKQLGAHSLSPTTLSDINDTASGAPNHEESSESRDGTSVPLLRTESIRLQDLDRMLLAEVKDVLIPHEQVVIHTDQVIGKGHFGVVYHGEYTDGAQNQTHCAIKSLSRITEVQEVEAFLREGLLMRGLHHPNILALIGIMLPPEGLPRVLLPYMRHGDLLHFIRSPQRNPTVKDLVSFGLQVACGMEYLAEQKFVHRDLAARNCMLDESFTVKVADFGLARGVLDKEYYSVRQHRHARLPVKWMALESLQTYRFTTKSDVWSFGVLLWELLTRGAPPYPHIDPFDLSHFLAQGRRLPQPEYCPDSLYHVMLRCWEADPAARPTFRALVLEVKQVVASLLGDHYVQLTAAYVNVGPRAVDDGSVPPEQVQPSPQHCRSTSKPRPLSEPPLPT

U-87 MG [16] = test: Antiproliferative activity against human U-87 MG cells over expressing c-Met assessed as reduction in cell viability after 48 to 72 hrs by MTT assay
U-87 MG [17] = test: Antitumor activity against human U-87 MG cells xenografted in athymic nu/nu mouse assessed as tumor growth inhibition at 10 mg/kg, po for 9 days relative to control; conditions: 216 h, read-out: TGI
GTL 16 [18] = conditions: Homo sapiens, dose 0.3-10 mg/kg, route po, time 4.0 day; remark: listed apart in the source
U-87 MG [19] = test: Antitumor activity against human U-87 MG cells xenografted in athymic nu/nu mouse assessed as tumor growth inhibition at 30 mg/kg, po for 9 days relative to control; conditions: 216 h, read-out: TGI
[20] = molecular target: Tyrosine-protein kinase Mer (Homo sapiens, UniProt Q12866); test: Inhibition of MER expressed in HEK293 cells assessed as reduction in Gas6-stimulated MER phosphorylation incubated for 1 hr by sandwich ELISA analysis
Sequence of Tyrosine-protein kinase Mer (Q12866 whole entry): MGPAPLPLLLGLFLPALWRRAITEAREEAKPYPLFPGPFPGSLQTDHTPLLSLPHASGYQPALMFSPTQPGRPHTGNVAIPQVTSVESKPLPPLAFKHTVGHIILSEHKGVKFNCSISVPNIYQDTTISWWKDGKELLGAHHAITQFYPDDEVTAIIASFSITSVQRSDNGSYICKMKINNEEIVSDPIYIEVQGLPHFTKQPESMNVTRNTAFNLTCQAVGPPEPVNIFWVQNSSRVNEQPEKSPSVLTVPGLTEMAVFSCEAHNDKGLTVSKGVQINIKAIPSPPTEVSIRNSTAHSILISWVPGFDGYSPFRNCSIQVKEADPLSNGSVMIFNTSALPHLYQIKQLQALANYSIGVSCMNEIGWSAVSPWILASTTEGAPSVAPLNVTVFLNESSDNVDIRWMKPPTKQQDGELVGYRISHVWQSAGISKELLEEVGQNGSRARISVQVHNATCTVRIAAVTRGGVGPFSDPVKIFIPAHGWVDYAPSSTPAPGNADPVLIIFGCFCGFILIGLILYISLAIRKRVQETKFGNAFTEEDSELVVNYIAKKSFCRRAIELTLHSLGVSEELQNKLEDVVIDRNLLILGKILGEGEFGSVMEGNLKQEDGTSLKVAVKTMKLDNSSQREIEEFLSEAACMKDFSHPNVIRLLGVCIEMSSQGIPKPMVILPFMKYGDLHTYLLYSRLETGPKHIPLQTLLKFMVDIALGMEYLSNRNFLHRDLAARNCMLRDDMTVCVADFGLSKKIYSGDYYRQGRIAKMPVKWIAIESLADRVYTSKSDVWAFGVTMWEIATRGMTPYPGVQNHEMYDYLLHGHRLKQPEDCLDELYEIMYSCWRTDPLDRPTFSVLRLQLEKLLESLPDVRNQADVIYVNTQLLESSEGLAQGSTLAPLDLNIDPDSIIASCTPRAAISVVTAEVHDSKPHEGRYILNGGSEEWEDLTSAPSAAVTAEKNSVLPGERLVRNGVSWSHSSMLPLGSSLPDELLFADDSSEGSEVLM

HT-29 [21] = test: Antitumor activity against human HT-29 cells xenografted in athymic nu/nu mouse assessed as tumor growth inhibition at 50 mg/kg/day, po for 21 days relative to control; conditions: HT-29, po, 504 h, read-out: TGI
NCI-H292 = test: Antitumor activity against human NCI-H292 cells xenografted in athymic nu/nu mouse assessed as tumor growth inhibition at 50 mg/kg/day, po for 31 days relative to control; conditions: 744 h, read-out: TGI
HT-29 [22] = conditions: Homo sapiens, dose 50.0 mg/kg/day, route po, time 21.0 day; remark: listed apart in the source
[23] = molecular target: Hepatocyte growth factor receptor (Canis lupus familiaris, UniProt Q75ZY9); test: Inhibition of c-Met phosphorylation in HGF-stimulated dog MDCK cells incubated for 1 hr by sandwich ELISA analysis
Sequence of Hepatocyte growth factor receptor (Q75ZY9 whole entry): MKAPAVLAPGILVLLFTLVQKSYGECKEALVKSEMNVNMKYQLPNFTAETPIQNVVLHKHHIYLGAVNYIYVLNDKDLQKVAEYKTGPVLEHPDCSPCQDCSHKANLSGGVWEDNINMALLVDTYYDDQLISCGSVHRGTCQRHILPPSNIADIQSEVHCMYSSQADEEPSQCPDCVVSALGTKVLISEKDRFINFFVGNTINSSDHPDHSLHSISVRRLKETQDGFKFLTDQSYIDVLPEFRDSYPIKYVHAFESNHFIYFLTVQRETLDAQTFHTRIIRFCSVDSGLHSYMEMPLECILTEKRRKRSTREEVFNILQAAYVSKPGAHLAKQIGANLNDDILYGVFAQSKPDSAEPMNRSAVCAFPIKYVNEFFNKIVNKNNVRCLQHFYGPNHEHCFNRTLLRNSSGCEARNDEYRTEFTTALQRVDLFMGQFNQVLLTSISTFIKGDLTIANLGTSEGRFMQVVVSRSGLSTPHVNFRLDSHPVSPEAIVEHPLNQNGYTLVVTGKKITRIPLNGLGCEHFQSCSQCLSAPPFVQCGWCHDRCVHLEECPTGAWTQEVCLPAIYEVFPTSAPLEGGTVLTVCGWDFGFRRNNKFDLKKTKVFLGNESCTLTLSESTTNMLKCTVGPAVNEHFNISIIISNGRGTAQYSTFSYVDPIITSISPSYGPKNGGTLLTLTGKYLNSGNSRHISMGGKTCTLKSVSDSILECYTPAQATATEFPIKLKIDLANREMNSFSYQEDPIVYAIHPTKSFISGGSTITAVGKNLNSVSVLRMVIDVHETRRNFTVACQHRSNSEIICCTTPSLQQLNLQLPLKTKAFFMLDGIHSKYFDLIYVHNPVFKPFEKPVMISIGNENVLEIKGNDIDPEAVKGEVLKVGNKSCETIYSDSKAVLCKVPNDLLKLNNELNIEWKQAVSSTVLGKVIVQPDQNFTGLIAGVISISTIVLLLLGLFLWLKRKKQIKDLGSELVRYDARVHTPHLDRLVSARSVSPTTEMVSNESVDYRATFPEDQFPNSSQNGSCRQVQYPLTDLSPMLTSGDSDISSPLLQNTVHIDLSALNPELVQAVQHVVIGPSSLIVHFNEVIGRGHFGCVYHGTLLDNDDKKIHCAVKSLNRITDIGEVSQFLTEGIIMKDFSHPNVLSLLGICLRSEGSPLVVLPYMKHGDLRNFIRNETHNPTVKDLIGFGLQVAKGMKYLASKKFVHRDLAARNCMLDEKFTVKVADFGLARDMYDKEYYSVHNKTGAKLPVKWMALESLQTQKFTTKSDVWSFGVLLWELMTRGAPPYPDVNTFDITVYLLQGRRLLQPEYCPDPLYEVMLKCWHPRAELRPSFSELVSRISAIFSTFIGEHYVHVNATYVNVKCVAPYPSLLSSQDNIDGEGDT

[24] = Inhibition of c-Met T11010I mutant phosphorylation in human HOP-92 cells assessed as reduction in HGF-stimulated c-Met phosphorylation incubated for 1 hr by ELISA analysis; conditions: HOP-92, 1 h
NCI-H441 = test: Inhibition of cell migration in HGF-stimulated human NCI-H441 cells over expressing c-Met incubated for 48 hrs by Matrigel based analysis; conditions: NCI-H441, 48 h

With `OCCn1cc(-c2cnc3nnn(Cc4ccc5ncccc5c4)c3n2)cn1` [PF-04217903] the inhibition in vivo at 30 mg/kg (GTL 16 cell line [1]) was 100%, the inhibition in vivo at 3 mg/kg (GTL 16 cell line [2]) was 74% and the IC50 (GTL 16 cell line [3]) was 12 nM. The IC50 (HT-29 [4]) was 7 nM, the inhibition in vivo at 5 mg/kg (GTL 16 cell line [5]) was 75% and the inhibition (GTL 16 [6]) was “Active”. The inhibition in vivo at 40 mg/kg/day (MDA-MB-231) was 43%, the inhibition in vivo at 0.5 mg/kg (GTL 16 cell line [7]) was 46% and the inhibition in vivo at 40 mg/kg/day (COLO 205) was 44%. For the same compound, the IC50 (DLD-1) was greater than 10000 nM, the inhibition in vivo at 15 mg/kg (GTL 16 cell line [8]) was 93% and the inhibition (HT-29 [9]) was “Active”. For the same compound, the IC50 (SW-620 [10]) was greater than 10000 nM, the IC50 (HCC1143) was greater than 10000 nM and the IC50 (A549) was greater than 10000 nM. The IC50 (HT-29 [11]) was greater than 10000 nM, the inhibition in vivo at 1.5 mg/kg (GTL 16 cell line [12]) was 63% and the inhibition (SW-620 [13]) was “Active”. For the same compound, the inhibition (GTL 16 [14]) was “Dose-Dependent Effect”, the IC50 (HUVEC) was 12.3 nM and the IC50 (Insulin receptor) was greater than 10000 nM. The IC50 (NCI-H1993) was 30 nM, the IC50 [15] was greater than 10000 nM and the IC50 (U-87 MG [16]) was greater than 10000 nM. For the same compound, the inhibition in vivo at 10 mg/kg (U-87 MG [17]) was 68%, the inhibition (GTL 16 [18]) was “Dose-Dependent Effect” and the inhibition in vivo at 30 mg/kg (U-87 MG [19]) was 84%. The IC50 [20] was greater than 10000 nM, the inhibition in vivo at 50 mg/kg/day (HT-29 [21]) was 40% and the inhibition in vivo at 50 mg/kg/day (NCI-H292) was 39%. The inhibition (HT-29 [22]) was “Active”, the IC50 [23] was 9.5 nM and the IC50 [24] was 6.7 nM. It also gave an IC50 (NCI-H441) of 11 nM.
